{
  "source": "patent US10987317B2",
  "about": "“Inhibition of glutaminase C” (Cornell University, priority 2009, dated 2021)",
  "key": {"[1]": {"system": "NIH 3T3 cells expressing H-Ras(G12V)", "test": "H-Ras(G12V)-induced transformation (focus formation, growth in low serum)", "format": "cell-based", "conditions": "focus formation in NIH 3T3 cells or growth in low serum", "from_the_text": "FIGS. 5A-C illustrate comparative abilities of 968 and other benzo[a]phenanthrldinones to inhibit the transforming activity of oncogenic Dbl and H-Ras. […] Histograms show the relative levels of Dbl-induced focus formation for the different treatments, compared to Dbl-induced focus formation measured in the presence of DMSO (i.e. solvent control). Data represent the average of 3 experiments (mean±s.d.). […] Histograms show the relative levels of Ras(G12V)-induced focus formation measured for the different treatments, compared to Ras(G12V)-induced focus formation measured in the presence of DMSO (solvent control). Data represent the average of 3 experiments (mean±s.d.). FIG. 5C NIH 3T3 cells stably expressing H-Ras(G12V) that are cultured in DMEM supplemented with 1% calf serum, with the indicated amounts of 968. After 6 days, cells are trypsinized and counted. 100% represents the number of cells counted in the absence of 968, i.e. 26×10^4 cells. Data represent the average of 3 experiments (mean±s.d.)."}, "SKBR3 cells": {"system": "SKBR3 cells", "test": "Breast cancer cell soft agar colony formation and growth", "format": "cell-based, human", "protocol": "FIGS. 2A-G illustrate effects of 968 on the transforming activity of constitutively active Rho GTPases and human breast cancer cells. […] Cells are scored after 14 days and plotted as the percentage of the total number of colonies greater than […] in diameter. Data represent the average of 3 experiments (±s.d.). […] Data represent the average of 3 experiments (±s.d.). […] Data represent the average of 3 experiments (±s.d.). […] After 24 hours at 37° C. the migratory cells are fixed, stained with GIEMSA, and counted. Data represent the average of 3 experiments (±s.d.). […] Data represent the average of 3 experiments (±s.d.). […] Data represent the average of 3 experiments (±s.d.). […] Data represent the average of 3 experiments (±s.d.).\n100%=620 moles of glutamine hydrolyzed per minute per mole of enzyme. Data represent the average of 3 experiments (±s.d.). […] Following precipitation of the beads and re-suspension, the samples are analyzed by Western blotting with anti-V5 antibody. […] Data represent the average of 3 experiments (±s.d.). […] Data represent the average of 3 experiments (±s.d.). […] Data represent the average of 3 experiments (±s.d.). FIG. 3E NIH 3T3 cells transiently expressing Dbl are assayed for focus formation in the presence of 10 μM 968 alone or together with […] dimethyl α-ketoglutarate. […] 100%=680 nM glutamine hydrolyzed per minute per 10^5 cells. Data are the average of 3 experiments (=s.d.). […] 100%=750 nM glutamine hydrolyzed per minute per 10^5 cells. Data represent the average of 3 experiments (±s.d.)."}, "[2]": {"system": "NIH 3T3 cells stably expressing Cdc42(F28L) and transiently expressing GAC", "test": "Focus formation by Cdc42(F28L) plus GAC", "format": "cell-based", "from_the_text": "FIGS. 4A-E illustrate the role of glutaminase C activity in cellular transformation. […] Data represent the average of 3 experiments (±s.d.). […] Data represent the average of 3 experiments (±s.d.). […] 100% represents the activity measured in untreated Dbl-transformed cells. The data represent the average of 2 experiments. […] 100% represents the activity measured in untreated SKBR3 cells. The data represent the average of 2 experiments. […] Data represent the average of 3 experiments (±s.d.)."}, "[3]": {"biological_target": "T1, V5-tagged GAC in NIH 3T3 cells stably expressing Dbl (Mus musculus, UniProt D3Z7P3)", "T1 construct": "expressed in transfected cells; host or cells: NIH 3T3 cells stably expressing oncogenic Dbl", "T1 sequence (D3Z7P3 55-603 isoform D3Z7P3-2 limits assumed)": "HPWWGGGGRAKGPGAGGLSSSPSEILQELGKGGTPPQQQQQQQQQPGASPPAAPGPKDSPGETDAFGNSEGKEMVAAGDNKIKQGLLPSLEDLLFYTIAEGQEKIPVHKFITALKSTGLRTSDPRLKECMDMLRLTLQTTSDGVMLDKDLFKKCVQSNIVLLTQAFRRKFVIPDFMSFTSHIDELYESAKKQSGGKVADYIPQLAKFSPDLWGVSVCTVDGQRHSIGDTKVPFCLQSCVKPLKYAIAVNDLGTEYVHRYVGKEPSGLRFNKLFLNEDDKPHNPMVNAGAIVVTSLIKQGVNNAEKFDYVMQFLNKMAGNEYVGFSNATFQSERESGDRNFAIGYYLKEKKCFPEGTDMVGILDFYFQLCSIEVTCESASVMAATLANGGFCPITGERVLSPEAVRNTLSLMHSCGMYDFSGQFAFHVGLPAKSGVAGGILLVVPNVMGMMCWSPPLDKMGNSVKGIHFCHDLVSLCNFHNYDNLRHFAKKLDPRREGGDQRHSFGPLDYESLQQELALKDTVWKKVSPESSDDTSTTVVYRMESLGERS", "test": "GAC phosphorylation by 2-D gel and Western blotting", "format": "cell-based", "conditions": "10 μM for 48 hours", "protocol": "NIH 3T3 cells stably expressing the Dbl oncogene, were transiently transfected with DNA encoding a VS-tagged GAC, and then one sample was treated with 968 (10 μM) for 48 hours. The cells were then harvested and the ectopically expressed GAC was isolated by immunoprecipitation via the V5 tag. The samples were then subjected to 2-D gel analysis to separate the V5-GAC by charge and size, and the V5-tagged GAC was visualized by Western blotting using an anti-V5 antibody. […] Since 968 inhibits the enzymatic activity of GAC, and the phosphorylation appears to be required for its basal enzyme activity, it appears that 968 might be functioning to inhibit glutaminase C by inhibiting the ability of at least one site on glutaminase C to become phosphorylated."}},
  "data": [
    {"smiles": "CN(C)c1ccc(C2Nc3ccc4ccccc4c3C3=C2C(=O)CC(C)(C)C3)cc1Br", "note": "(stereo not drawn) [Compound 968, 5-[3-bromo-4-(dimethylamino)phenyl]-2,2-dimethyl-2,3,5,6-tetrahydrobenzo[a]]", "values": [
      {"measurement": "potency on Dbl-induced transformation compared to oncogenic H-Ras", "setting": "[1]", "value": "more potent inhibitor of Dbl-induced transformation"},
      {"measurement": "colony formation in soft agar", "setting": "SKBR3 cells; 10 μM", "value": "inhibits"},
      {"measurement": "growth to high density and in low serum", "setting": "SKBR3 cells; 10 μM", "value": "inhibits"},
      {"measurement": "reversal of 968-inhibition by cell-permeable analog of α-ketoglutarate", "setting": "SKBR3 cells; growth in low serum, 10 μM 968 with 7 μM dimethyl α-ketoglutarate", "value": "circumvented"},
      {"measurement": "focus-forming activity", "setting": "[2]", "value": "blocked"},
      {"measurement": "phosphorylation state of GAC", "setting": "[3]", "value": "significant reduction of at least one phosphorylation state"}
    ]}
  ]
}
